Test results reported in publication PMC8626775, “Anti-schistosomal activities of quinoxaline-containing compounds: From hit identification to lead optimisation” (European Journal of Medicinal Chemistry, 2021).
Several values for one entry are separate records, joined by “and”; a condition that tells them apart may be missing. Equal values may be shown once. Entries after “also recorded” stand apart in the source; their conditions may differ. Read-outs that look alike come from different tables or passages of the source.

Assays:
[1] = system: adult S. japonicum male worms; assay: In vitro screening of S. japonicum adults at 100 nM (WormAssay motility, descriptors, severity score); assay type: cell-based, Schistosoma japonicum; parameters: key to DESCRIPTORS 48 h / DESCRIPTORS 72 h: Dark = dark; S = Slow; S-uncoord = uncoordinated slow movements; O-uncoord = uncoordinated fast movements; On sides = male worms are not adhering to dish with ventral sucker; Shrunk = worms are not flexing and are smaller than usual; Teg damage = outer surface (tegument of the worm) is damaged; Deg= degenerating; D = Dead; conditions: for Effect on S. japonicum adult male worms: 5, 24, 48 and 72 h; for SEVERITY SCORES 5 h / SEVERITY SCORES 24 h / SEVERITY SCORES 48 h / SEVERITY SCORES 72 h: max = 4, one line per replicate
Procedure: (§1) For each species, parasite recovery involved reverse perfusion of the hepatic portal and mesenteric system using DMEM (Fisher Scientific). Parasites were washed six times with Basch 169 medium supplemented with 100 U/ml penicillin and 100 μg/ml streptomycin before manually distributing approximately 5 males per well (on occasion 1 or 2 females might also be present) of a 24-well plate (Corning Costar 3524). […] The next morning, a final concentration of 100 nM compound (in 1 μL DMSO) was added to each well and the final volume made up to 2 ml with Basch 169 medium supplemented with antibiotics and FBS. Each compound was tested in triplicate (except for some instances tested in duplicate). […] The phenotypic characterisation of compound effects focused on male worms due to the greater range of their motility characteristics that include flexing, bending, stretching, sucker walking and adherence, compared to the more sedentary female worms. In addition to descriptors, WormAssay, as adapted for the schistosome, was used to measure average worm motility per well [72, 73].

[2] = system: Adult S. haematobium worms; assay: In vitro screening of S. haematobium adults at 100 nM (WormAssay motility, descriptors, severity score); assay type: cell-based, Schistosoma haematobium
Procedure: as §1

[3] = system: S. mansoni adult worms; assay: S. mansoni adult worm motility screen (WormassayGP2), 72 h; assay type: cell-based, Schistosoma mansoni; conditions: for EC50: Schistosoma mansoni
Text: Mice (Mus musculus HsdOLa:TO - Tuck Ordinary; Envigo, UK) were used for the mammalian-specific propagation of the S. mansoni life cycle. Experimental animals were infected with 4000 or 180 S. mansoni cercariae/mouse and perfused three- or seven-weeks post-infection to obtain S. mansoni juvenile or adult worms, respectively. Preparation steps following perfusion have been described previously. Briefly, the parasite material was washed three times with pre-warmed adult worm media (DMEM (Gibco, Paisley, UK) supplemented with 10% (v/v) Fetal Calf Serum (FCS, Gibco, Paisley, UK), 1% (v/v) L-glutamine (Gibco, Paisley, UK) and an antibiotic mixture (150 Units/ml penicillin and 150 μg/ml streptomycin; Gibco, UK)) to remove residual host contamination and incubated in a humidified environment containing 5% CO2 at 37 °C for at least 1 h.
For the evaluation of anti-schistosomal activity on the adult stage of the parasite, 7-wk old worms were transferred into 48 well tissue culture plates (1–3 worm pairs/well, in duplicate). […] DMSO (0.5%) and praziquantel (10 μM in 0.5% DMSO) were also included as negative and positive control treatments. Treated adult worms were incubated for 72 h in a humidified environment containing 5% CO2 at 37 °C. Parasite motility after compound treatment was assessed by a digital image processing-based system (WormassayGP2), modified after Wormassay. Following compound-parasite co-incubation, eggs were collected, fixed in formalin (10% v/v formaldehyde) and enumerated aiming to collect further information on any compound-induced effects on parasite fecundity and IVLE production.

[4] = system: S. mansoni schistosomula; assay: S. mansoni schistosomula high-throughput phenotype and motility screen (Roboworm), 72 h; assay type: cell-based, Schistosoma mansoni; conditions: for EC50: Schistosoma mansoni
Procedure: Cercariae derived from the NMRI ([…]) Puerto Rican strain (PR-1) of S. mansoni were shed from two Biomphalaria glabrata strains, the NMRI albino and pigmented outbred strains, under intensified lighting conditions (1 h of incubation at 26 °C). Cercariae were then mechanically transformed into schistosomula as previously described.
High-throughput screening (HTS) of selected compounds was conducted as previously described. Briefly, newly transformed schistosomula were distributed in a 384-well tissue culture plate (PerkinElmer, cat 6007460, seeding density of 120 parasites/well). Each compound (at a single concentration or two-fold titrations) was transferred into individual wells alongside the positive and negative controls (AUR at 10 μM final concentration in 0.625% DMSO and 0.625% DMSO, respectively). Schistosomula/compound co-cultures were then incubated at 37 °C for 72 h in a humidified atmosphere containing 5% CO2. Following the co-culture period, automatic assessment of compound-induced schistosomula motility and phenotypic changes were conducted with the high-content imaging platform Roboworm using the image analysis model previously described by Paveley et al..

[5] = system: HepG2 cells; assay: HepG2 MTT cytotoxicity assay; conditions: for Selectivity Index (SI) Somula: HepG2 CC50 versus schistosomula EC50
Procedure: Initially the cells were handled under sterile conditions and grown at 37 °C in a humidified atmosphere containing 5% CO2. Cytotoxicity was evaluated by way of a 3-(4, 5- dimethylthiazol-2-yl)-2,5-diphenyl tetrazolium bromide (MTT) assay as previously described. The cells were counted in a dual chamber counting slide using the BIORAD TC-10 Automated cell counter, seeded in a 96-well plate (Fisher Scientific, Loughborough, UK) at a density of 2 × 10^4 cells/well and incubated in an atmosphere of 5% CO2 at 37 °C. […] The absorbance readings (at 570 nm) of the soluble formazan crystals were recorded using PolarStar Omega plate reader (BMG-Labtech). […] The latter was used to calculate the selectivity index (SI) of the compounds presented herein.

[6] = S. japonicum, one line per replicate
[7] = Table 4, Series A, read-out: Anti-schistosomal activity EC50 Adult (nM) Motility
[8] = Table 2, 72 h, titrations 0.0095–5 μM, WormassayGP2, read-out: Activity on adult worms (EC50, μM - 72 h) Motility
[9] = 72 h, Table 2, average of phenotype and motility EC50, 72 h, read-out: Activity on schistosomula (EC50, μM - 72 h) Average
[10] = 72 h, Table 2, motility, 72 h, three replicate titrations (0.313–10 μM), read-out: Activity on schistosomula (EC50, μM - 72 h) M
[11] = 72 h, Table 2, phenotype, 72 h, three replicate titrations (0.313–10 μM), read-out: Activity on schistosomula (EC50, μM - 72 h) P
[12] = Table 4, Series A, read-out: Anti-schistosomal activity EC50 Schistosomula (μM) Motility
[13] = Table 4, Series A, read-out: Anti-schistosomal activity EC50 Schistosomula (μM) Phenotype
[14] = 72 h, read-out: EC50 on schistosomula (bounds and ranges given)
[15] = 72 h, Table 1, 72 h, two dose response titrations (0.313–10 μM), 95% CI in brackets, read-out: Activity on schistosomula (EC50, μM - 72 h) Motility
[16] = 72 h, Table 1, 72 h, two dose response titrations (0.313–10 μM), 95% CI in brackets, read-out: Activity on schistosomula (EC50, μM - 72 h) Phenotype
[17] = 72 h, Table 1, mean of phenotype and motility EC50, 72 h, read-out: Activity on schistosomula (EC50, μM - 72 h) Average

SMILES	EC50 [3, 7] [nM]	EC50 [3, 8] [nM]	EC50 [4, 9] [µM]	EC50 [4, 10] [µM]	EC50 [4, 11] [µM]	EC50 [4, 12] [µM]	EC50 [4, 13] [µM]	Effect on S. japonicum adult male worms [1]	SEVERITY SCORES 5 h ([1]; S. japonicum)	SEVERITY SCORES 24 h ([1]; S. japonicum, 24 h)	SEVERITY SCORES 48 h ([1]; S. japonicum)	SEVERITY SCORES 72 h ([1]; S. japonicum)	Selectivity Index (SI) Somula [5]	other results
O=[N+]([O-])c1ccc2nc(NCc3ccccc3)c(NCc3ccccc3)nc2c1 [Compound 36, N2, N3-dibenzyl-6-nitroquinoxaline-2,3-diamine]	–	–	2.91	2.64	3.19	–	–	–	–	–	–	–	1.74	EC50 [4, 14]: > 2 µM; EC50 ([4]; Table 3, read-out: Anti-schistosomal activity EC50 (μM) Schistosomula Motility): 2.64 µM; EC50 ([4]; Table 3, read-out: Anti-schistosomal activity EC50 (μM) Schistosomula Phenotype): 3.19 µM
FC(F)(F)c1cccc(Nc2nc3ccccc3nc2Nc2cccc(C(F)(F)F)c2)c1 [Compound 11]	–	–	–	–	–	–	–	–	–	–	–	–	–	Effect on adult worm motility at 3.15 μM ([3]; 3.15 μM, lowest concentration tested): complete cessation of worm mobility; Effect on adult worm motility at 12.5 and 6.25 μM [3]: particularly active; Activity on schistosomula in the primary screen at 10 μM ([4]; 72 h): retained activity; EC50 [4, 15]: 1.12 µM; EC50 [4, 16]: 1.38 µM; EC50 [4, 17]: 1.25 µM
COC(=O)c1ccc(Nc2nc3ccc([N+](=O)[O-])cc3nc2Nc2ccc(C(=O)OC)cc2)cc1 [Compound 23]	–	–	–	–	–	–	–	–	–	–	–	–	–	Effect on adult worm motility at 12.5 and 6.25 μM [3]: particularly active; Activity on schistosomula in the primary screen at 10 μM ([4]; 72 h): retained activity; EC50 [4, 15]: 1.44 µM; EC50 [4, 16]: 1.23 µM; EC50 [4, 17]: 1.33 µM
Nc1ccc2nc(Nc3ccc(Cl)c(Cl)c3)c(Nc3ccc(Cl)c(Cl)c3)nc2c1 [Compound 22a, N^2, N^3-bis(3,4-dichlorophenyl)quinoxaline-2,3,6-triamine]	–	–	3.38	3.25	3.51	–	–	–	–	–	–	–	–	Toxicity on HepG2 in words ([5]; 24 h): low toxicity; EC50 [4, 14]: > 2 µM
O=C(Nc1ccc2nc(Nc3ccc(Cl)c(Cl)c3)c(Nc3ccc(Cl)c(Cl)c3)nc2c1)c1ccco1 [Compound 22f, N-(2,3-bis((3,4-dichlorophenyl)amino)quinoxalin-6-yl)furan-2-carboxamide]	–	–	1.95	2	1.91	–	–	–	–	–	–	–	2.91	EC50 ([4]; Table 5, Series C, read-out: Anti-schistosomal activity EC50 Schistosomula (μM) Motility): 2 µM; EC50 ([4]; Table 5, Series C, read-out: Anti-schistosomal activity EC50 Schistosomula (μM) Phenotype): 1.91 µM

Further compounds by falling EC50 [4, 9], results first:

EC50 [3, 7] [nM]	EC50 [3, 8] [nM]	EC50 [4, 9] [µM]	EC50 [4, 10] [µM]	EC50 [4, 11] [µM]	EC50 [4, 12] [µM]	EC50 [4, 13] [µM]	SMILES	Effect on S. japonicum adult male worms [1]	SEVERITY SCORES 5 h ([1]; S. japonicum)	SEVERITY SCORES 24 h ([1]; S. japonicum, 24 h)	SEVERITY SCORES 48 h ([1]; S. japonicum)	SEVERITY SCORES 72 h ([1]; S. japonicum)	Selectivity Index (SI) Somula [5]	other results
122	122	0.71	0.65	0.78	0.83	1.06	O=[N+]([O-])c1ccc2nc(Nc3ccc(Br)cc3)c(Nc3ccc(Br)cc3)nc2c1 [Compound 29, N2, N3-bis(4-bromophenyl)-6-nitroquinoxaline-2,3-diamine]	–	–	–	–	–	5.55	Selectivity Index (SI) Adult worms ([5]; HepG2 CC50 versus adult worm EC50): 32.52
44	44	0.66	0.69	0.63	0.69	0.63	COc1ccc(Nc2nc3ccc([N+](=O)[O-])cc3nc2Nc2ccc(OC)c(C(F)(F)F)c2)cc1C(F)(F)F [Compound 35, N2, N3-bis(4-methoxy-3-(trifluoromethyl)phenyl)-6-nitroquinoxaline-2,3-diamine]	no appreciable activity	0	0	0	0	–	–
20.3	20.3	0.41	0.39	0.42	0.39	0.42	O=[N+]([O-])c1ccc2nc(Nc3ccc(Cl)cc3)c(Nc3ccc(Cl)cc3)nc2c1 [Compound 26, N^2, N^3-bis(4-chlorophenyl)-6-nitroquinoxaline-2,3-diamine]	decreased motility starting at 48 h	0	0	1	2 and 1	–	DESCRIPTORS 48 h [1, 6]: S; DESCRIPTORS 72 h [1, 6]: S, on sides and S
7.7	7.7	0.31	0.28	0.34	0.28	0.34	O=[N+]([O-])c1ccc2nc(Nc3ccc(C(F)(F)F)cc3)c(Nc3ccc(C(F)(F)F)cc3)nc2c1 [Compound 31, 6-nitro-N2, N3-bis(4-(trifluoromethyl)phenyl)quinoxaline-2,3-diamine]	essentially lethal	0	0	4	4	–	Onset time on S. japonicum [1]: ≤ 24 h; DESCRIPTORS 24 h ([1]; S. japonicum, 24 h, one line per replicate): Dark, S, on sides; DESCRIPTORS 48 h [1, 6]: Dying, deg; DESCRIPTORS 72 h [1, 6]: Dying, D; Onset time on S. haematobium [2]: ≤ 24 h; Effect on S. haematobium adult worms ([2]; 5, 24, 48 and 72 h): best activity; SEVERITY SCORES 5 h ([2]; S. haematobium, 5 h, max = 4, one line per replicate): 0; SEVERITY SCORES 24 h ([2]; S. haematobium, 24 h, max = 4, one line per replicate): 2; DESCRIPTORS 24 h ([2]; S. haematobium, 24 h, one line per replicate): S, on sides; also recorded: S, onsides; SEVERITY SCORES 48 h ([2]; S. haematobium, 48 h, max = 4, one line per replicate): 2; DESCRIPTORS 48 h ([2]; S. haematobium, 48 h, one line per replicate): S, on sides; also recorded: S, onsides; SEVERITY SCORES 72 h ([2]; S. haematobium, 72 h, max = 4, one line per replicate): 3; DESCRIPTORS 72 h ([2]; S. haematobium, 72 h, one line per replicate): S, dark on sides
